The results in this text go back to ChEMBL document CHEMBL1138879 (J Med Chem, 2006).

Series [1] in a line: in vivo. As to conditions: dog, iv, 5 mg/kg.
The nature of series [2]: in vivo. As to conditions: dog, iv, 5 mg/kg. This is another data set of the same source.
The target in series [3] is hERG (KCNH2) (Homo sapiens, UniProt Q12809). As to the kind of experiment: in vitro.
A short description of series [4]: in vivo. Particulars: mouse, po, 1 mg/kg.
Series [5] can be described thus: in vivo. Particulars: dog, iv, 5 mg/kg. This is another data set of the same source.
A short description of series [6]: in vivo. As to conditions: mouse, iv, 1 mg/kg.
The nature of series [7]: in vivo. Particulars: mouse, iv, 1 mg/kg. The source holds these as a separate data set.
The subject of series [8] is PBMC. Kind of series: cells. As to conditions: Homo sapiens.
Series [9] is described as follows: in vivo. As to conditions: dog, po, 10 mg/kg.
A short description of series [10]: in vivo. Particulars: dog, po, 10 mg/kg. This is another data set of the same source.
A short description of series [11]: in vivo. Particulars: dog, po, 10 mg/kg. This is another data set of the same source.
Series [12] is described as follows: in vivo. As to conditions: mouse, plasma, po, 1 mg/kg.
Series [13] in a line: in vivo. As to conditions: dog, plasma, po, 10 mg/kg.
Series [14] is described as follows: in vivo. Particulars: dog, iv, 5 mg/kg. The source holds these as a separate data set.
Series [15] in a line: in vivo. As to conditions: mouse, po, 1 mg/kg. This is another data set of the same source.
The nature of series [16]: in vivo. As to conditions: mouse, iv, 1 mg/kg. This is another data set of the same source.
Series [17] in a line: in vivo. As to conditions: mouse, po, 1 mg/kg. The source holds these as a separate data set.
A short description of series [18]: in vivo. As to conditions: mouse, iv, 1 mg/kg. The source holds these as a separate data set.

Sequence of hERG (KCNH2) (Q12809 whole entry): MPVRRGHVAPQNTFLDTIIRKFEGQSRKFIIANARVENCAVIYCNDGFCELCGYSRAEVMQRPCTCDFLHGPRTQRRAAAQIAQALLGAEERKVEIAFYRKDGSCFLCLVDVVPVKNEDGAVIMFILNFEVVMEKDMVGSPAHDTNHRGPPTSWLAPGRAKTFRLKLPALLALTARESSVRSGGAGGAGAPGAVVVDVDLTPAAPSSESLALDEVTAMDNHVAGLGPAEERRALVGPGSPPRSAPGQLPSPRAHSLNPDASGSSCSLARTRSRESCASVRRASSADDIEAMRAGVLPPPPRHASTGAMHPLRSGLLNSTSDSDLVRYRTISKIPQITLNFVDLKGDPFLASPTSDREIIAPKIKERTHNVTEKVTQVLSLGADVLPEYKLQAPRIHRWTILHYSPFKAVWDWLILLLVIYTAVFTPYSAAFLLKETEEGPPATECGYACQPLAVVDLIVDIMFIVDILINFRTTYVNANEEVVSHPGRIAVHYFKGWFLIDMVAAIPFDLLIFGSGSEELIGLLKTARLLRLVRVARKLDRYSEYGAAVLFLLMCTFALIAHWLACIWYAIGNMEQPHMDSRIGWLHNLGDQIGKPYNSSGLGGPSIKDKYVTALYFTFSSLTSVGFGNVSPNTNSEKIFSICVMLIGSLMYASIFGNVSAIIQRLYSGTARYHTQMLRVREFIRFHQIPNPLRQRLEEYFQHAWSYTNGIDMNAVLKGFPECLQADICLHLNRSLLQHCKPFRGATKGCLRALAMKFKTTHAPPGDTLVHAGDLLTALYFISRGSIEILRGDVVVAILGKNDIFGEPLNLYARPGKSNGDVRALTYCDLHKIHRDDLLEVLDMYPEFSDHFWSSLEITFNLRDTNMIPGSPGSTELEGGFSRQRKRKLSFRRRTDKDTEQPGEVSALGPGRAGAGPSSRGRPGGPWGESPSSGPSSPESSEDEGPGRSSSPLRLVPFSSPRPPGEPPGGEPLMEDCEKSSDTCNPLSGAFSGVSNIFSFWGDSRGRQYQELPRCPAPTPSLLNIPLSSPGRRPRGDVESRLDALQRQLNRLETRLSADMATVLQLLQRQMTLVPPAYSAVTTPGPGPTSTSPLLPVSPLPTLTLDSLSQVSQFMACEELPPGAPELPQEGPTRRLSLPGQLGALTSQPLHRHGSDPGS

With `CN1C(=O)N(c2cc(Cl)cc(Cl)c2)C(=O)[C@]12CN(Cc1cc(C(=O)O)cs1)C[C@H]2c1ccc(C#N)cc1`, the half-life was 3.5 h in [1] and 5.4 h in series [18]. Also, the Vd in series [2] turned out to be 0.7 L/kg; in series [6], 8.5 L/kg. In addition, in series [3], the inhibition at 30 µM stood at 24%. Moreover, the time of peak concentration (Tmax) in [4] was determined as 0.25 h; in series [11], 2 h. Besides, the results for the MRT in series [5] and in [7] were 3.3 h and 4.4 h, respectively. The compound also showed a half-inhibitory concentration (IC50) in series [8] of 280 nM. Further, the Cmax in [9] stood at 18.9 µM; in series [15] it was 0.083 µM. In addition, the bioavailability was determined as 100% in [10] and 41% in series [17]. Besides, the AUC came to 0.306 µM·h in series [12] and 115 µM·h in series [13]. Moreover, the clearance in series [14] is 3.6 mL/min/kg; in [16] it was 32 mL/min/kg.

The half-life is the time in which the quantity being followed falls by half. Lower therefore signals rapid decline. The Vd is the apparent volume that relates the amount in the body to the concentration in plasma or blood. Read a high Vd as wide distribution into tissue. The inhibition is the change of the read-out against control, counted positive when it falls. The low end stands for a weak effect, the high end for a strong effect. The Tmax is the time at which the peak concentration occurs. Usually MRT stands for a mean duration of stay, worked out from the concentration-time curve. By IC50 is commonly meant the concentration needed to halve the response being measured. Low values mean greater potency, high ones weaker potency. As a reminder, the Cmax is the maximum level reached in the sampled fluid or tissue. In general, bioavailability refers to dose-corrected exposure relative to a reference, in per cent. Read a high bioavailability as much systemic uptake. As usually defined, the AUC is the area under the concentration-time curve, a measure of exposure. Read a low AUC as less exposure. As a reminder, the clearance is the volume of plasma or blood freed of the substance per unit of time. Low readings indicate a low capacity for elimination, high ones a high capacity for elimination.
